Columns and labels:
CDK1/cyclinB(h) = target: T1, CDK1/cyclinB(h) (Homo sapiens, UniProt P06493); assay: Eurofins KinaseProfiler radiometric kinase assay; assay type: biochemical; conditions: read-out: CDK1/cyclinB(h) % Residual activity
T1 construct: purchased Eurofins KinaseProfiler (Eurofins Cerep)

TAK1(h) = target: T2, TAK1(h) (Homo sapiens, UniProt O43318); assay: Eurofins KinaseProfiler radiometric kinase assay; assay type: biochemical; conditions: read-out: TAK1(h) % Residual activity
T2 construct: purchased Eurofins (Eurofins Cerep) KinaseProfiler

CDK7/cyclinH/MAT1(h) = target: T3, CDK7/cyclinH/MAT1(h) (Homo sapiens, UniProt P50613); assay: Eurofins KinaseProfiler radiometric kinase assay; assay type: biochemical; conditions: read-out: CDK7/cyclinH/MAT1(h) % Residual activity
T3 construct: purchased Eurofins KinaseProfiler (Eurofins Cerep)

Lyn(h) = target: T4, Lyn(h) (Homo sapiens, UniProt P07948); assay: Eurofins KinaseProfiler radiometric kinase assay; assay type: biochemical; conditions: for Lyn inhibition: 10 µM; for remaining activity at 10 µM: read-out: Lyn(h) % Residual activity
T4 construct: purchased Eurofins KinaseProfiler (Eurofins Cerep)

PRAK(h) = target: T5, PRAK(h) (Homo sapiens, UniProt Q8IW41); assay: Eurofins KinaseProfiler radiometric kinase assay; assay type: biochemical; conditions: read-out: PRAK(h) % Residual activity
T5 construct: purchased Eurofins KinaseProfiler (Eurofins Cerep)

[1] = system: primary rat cerebellar granule neurons (CGNs); assay: Neuroprotection in CGNs, serum/potassium deprivation (MTT); assay type: cell-based; conditions: 5, 10, and 25 μM, 48 h
Source text: First, we evaluated the neuroprotective properties of the selected compounds in the same cell line, once the expression of Fyn and GSK-3β in this cellular model was verified (Figure S2), after a serum/potassium deprivation experiment, which simulates physiological aging (and mortality), triggering around 20% of cell death. In particular, 7 days differentiated CGNs were exposed to serum-free BME medium with low extracellular concentration of K^+ ions and treated at selected doses (i.e., 5, 10, and 25 μM) of compounds for 48 h. Neuronal viability was then determined with an MTT assay.
To evaluate the neuroprotective effect of our compounds, we tested increasing concentrations (5 μM, 10 μM, 25 μM) of compounds of interest in differentiated CGNs switched to serum-free BME medium with 5 mM KCl (serum-potassium deprivation) for 48 h to mimic in vitro the naturally occurring death of granule cells. Neuroprotection was evaluated through MTT assay.
For MTT assay, thiazolyl blue was added to the culture medium at a final concentration of 0.1 mg/mL. Following a 20 min incubation at 37 °C in the dark, the MTT precipitate was dissolved in 0.1 M Tris–HCl pH 7.5 buffer containing 5% Triton X-100 (all from Sigma-Aldrich) and absorbance was read at 570 nm in a microplate spectrophotometric reader (Bio-Rad).

Rse(h) = target: T6, Rse(h) (Homo sapiens, UniProt Q06418); assay: Eurofins KinaseProfiler radiometric kinase assay; assay type: biochemical; conditions: read-out: Rse(h) % Residual activity
T6 construct: purchased Eurofins (Eurofins Cerep) KinaseProfiler

eEF-2K(h) = target: T7, eEF-2K(h) (Homo sapiens, UniProt O00418); assay: Eurofins KinaseProfiler radiometric kinase assay; assay type: biochemical; conditions: read-out: eEF-2K(h) % Residual activity
T7 construct: purchased Eurofins KinaseProfiler (Eurofins Cerep)

ALK(h) = target: T8, ALK(h) (Homo sapiens, UniProt Q9UM73); assay: Eurofins KinaseProfiler radiometric kinase assay; assay type: biochemical; conditions: read-out: ALK(h) % Residual activity
T8 construct: purchased Eurofins KinaseProfiler (Eurofins Cerep)

c-RAF(h) = target: T9, c-RAF(h) (Homo sapiens, UniProt P04049); assay: Eurofins KinaseProfiler radiometric kinase assay; assay type: biochemical; conditions: read-out: c-RAF(h) % Residual activity
T9 construct: purchased Eurofins KinaseProfiler (Eurofins Cerep)

MST1(h) = target: T10, MST1(h) (Homo sapiens, UniProt Q13043); assay: Eurofins KinaseProfiler radiometric kinase assay; assay type: biochemical; conditions: read-out: MST1(h) % Residual activity
T10 construct: purchased Eurofins KinaseProfiler (Eurofins Cerep)

PKCθ(h) = target: T11, PKCθ(h) (Homo sapiens, UniProt Q04759); assay: Eurofins KinaseProfiler radiometric kinase assay; assay type: biochemical; conditions: read-out: PKCθ(h) % Residual activity
T11 construct: purchased Eurofins KinaseProfiler (Eurofins Cerep)

ASK1(h) = target: T12, ASK1(h) (Homo sapiens, UniProt Q99683); assay: Eurofins KinaseProfiler radiometric kinase assay; assay type: biochemical; conditions: read-out: ASK1(h) % Residual activity
T12 construct: purchased Eurofins KinaseProfiler (Eurofins Cerep)

[2] = target: T13, PI3 Kinase (p110δ/p85α)(h) (Homo sapiens, UniProt O00329); assay: Eurofins KinaseProfiler radiometric kinase assay; assay type: biochemical; conditions: read-out: PI3 Kinase (p110δ/p85α)(h) % Residual activity
T13 construct: purchased Eurofins (Eurofins Cerep) KinaseProfiler

p70S6K(h) = target: T14, p70S6K(h) (Homo sapiens, UniProt P23443); assay: Eurofins KinaseProfiler radiometric kinase assay; assay type: biochemical; conditions: read-out: p70S6K(h) % Residual activity
T14 construct: purchased Eurofins KinaseProfiler (Eurofins Cerep)

PI3 Kinase (p120γ)(h) = target: T15, PI3 Kinase (p120γ)(h) (Homo sapiens, UniProt P48736); assay: Eurofins KinaseProfiler radiometric kinase assay; assay type: biochemical; conditions: read-out: PI3 Kinase (p120γ)(h) % Residual activity
T15 construct: purchased Eurofins (Eurofins Cerep) KinaseProfiler

Abl(h) = target: T16, Abl(h) (Homo sapiens, UniProt P00519); assay: Eurofins KinaseProfiler radiometric kinase assay; assay type: biochemical; conditions: for Abl inhibition: 10 µM; for remaining activity at 10 µM: read-out: Abl(h) % Residual activity
T16 construct: purchased Eurofins KinaseProfiler (Eurofins Cerep)

DRAK1(h) = target: T17, DRAK1(h) (Homo sapiens, UniProt Q9UEE5); assay: Eurofins KinaseProfiler radiometric kinase assay; assay type: biochemical; conditions: for remaining activity at 10 µM: read-out: DRAK1(h) % Residual activity
T17 construct: purchased Eurofins KinaseProfiler (Eurofins Cerep)
T17 sequence (Q9UEE5 1-414): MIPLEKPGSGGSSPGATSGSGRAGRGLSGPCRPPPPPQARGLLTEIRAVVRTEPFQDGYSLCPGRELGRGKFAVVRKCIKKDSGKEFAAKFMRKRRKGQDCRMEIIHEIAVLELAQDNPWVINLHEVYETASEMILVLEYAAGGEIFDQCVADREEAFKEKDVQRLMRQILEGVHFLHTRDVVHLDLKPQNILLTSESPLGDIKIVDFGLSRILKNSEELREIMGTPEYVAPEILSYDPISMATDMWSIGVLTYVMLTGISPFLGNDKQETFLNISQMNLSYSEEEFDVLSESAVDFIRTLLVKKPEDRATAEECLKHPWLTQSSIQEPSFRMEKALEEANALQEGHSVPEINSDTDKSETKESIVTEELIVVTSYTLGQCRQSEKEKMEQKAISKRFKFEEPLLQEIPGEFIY

PKCα(h) = target: T18, PKCα(h) (Homo sapiens, UniProt P17252); assay: Eurofins KinaseProfiler radiometric kinase assay; assay type: biochemical; conditions: read-out: PKCα(h) % Residual activity
T18 construct: purchased Eurofins KinaseProfiler (Eurofins Cerep)

ROCK-I(h) = target: T19, ROCK-I(h) (Homo sapiens, UniProt Q13464); assay: Eurofins KinaseProfiler radiometric kinase assay; assay type: biochemical; conditions: read-out: ROCK-I(h) % Residual activity
T19 construct: purchased Eurofins KinaseProfiler (Eurofins Cerep)

IRAK4(h) = target: T20, IRAK4(h) (Homo sapiens, UniProt Q9NWZ3); assay: Eurofins KinaseProfiler radiometric kinase assay; assay type: biochemical; conditions: read-out: IRAK4(h) % Residual activity
T20 construct: purchased Eurofins KinaseProfiler (Eurofins Cerep)

CaMKI(h) = target: T21, CaMKI(h) (Homo sapiens, UniProt Q14012); assay: Eurofins KinaseProfiler radiometric kinase assay; assay type: biochemical; conditions: read-out: CaMKI(h) % Residual activity
T21 construct: purchased Eurofins KinaseProfiler (Eurofins Cerep)

MEK1(h) = target: T22, MEK1(h) (Homo sapiens, UniProt Q02750); assay: Eurofins KinaseProfiler radiometric kinase assay; assay type: biochemical; conditions: read-out: MEK1(h) % Residual activity
T22 construct: purchased Eurofins KinaseProfiler (Eurofins Cerep)

T4 sequence (P07948 whole entry): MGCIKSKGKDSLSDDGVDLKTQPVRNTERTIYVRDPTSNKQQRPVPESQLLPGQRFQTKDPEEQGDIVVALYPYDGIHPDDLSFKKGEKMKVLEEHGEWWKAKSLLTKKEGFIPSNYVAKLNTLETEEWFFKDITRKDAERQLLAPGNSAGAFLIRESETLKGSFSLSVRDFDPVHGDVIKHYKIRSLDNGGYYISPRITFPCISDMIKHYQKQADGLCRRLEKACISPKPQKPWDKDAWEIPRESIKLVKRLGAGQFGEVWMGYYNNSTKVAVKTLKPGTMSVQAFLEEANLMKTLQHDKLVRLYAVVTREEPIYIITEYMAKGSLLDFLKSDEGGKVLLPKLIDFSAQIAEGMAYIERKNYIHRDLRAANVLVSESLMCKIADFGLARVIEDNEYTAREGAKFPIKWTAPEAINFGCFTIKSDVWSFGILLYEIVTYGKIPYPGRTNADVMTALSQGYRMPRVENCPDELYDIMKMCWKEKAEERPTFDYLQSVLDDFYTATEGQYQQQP
T16 sequence (P00519 whole entry): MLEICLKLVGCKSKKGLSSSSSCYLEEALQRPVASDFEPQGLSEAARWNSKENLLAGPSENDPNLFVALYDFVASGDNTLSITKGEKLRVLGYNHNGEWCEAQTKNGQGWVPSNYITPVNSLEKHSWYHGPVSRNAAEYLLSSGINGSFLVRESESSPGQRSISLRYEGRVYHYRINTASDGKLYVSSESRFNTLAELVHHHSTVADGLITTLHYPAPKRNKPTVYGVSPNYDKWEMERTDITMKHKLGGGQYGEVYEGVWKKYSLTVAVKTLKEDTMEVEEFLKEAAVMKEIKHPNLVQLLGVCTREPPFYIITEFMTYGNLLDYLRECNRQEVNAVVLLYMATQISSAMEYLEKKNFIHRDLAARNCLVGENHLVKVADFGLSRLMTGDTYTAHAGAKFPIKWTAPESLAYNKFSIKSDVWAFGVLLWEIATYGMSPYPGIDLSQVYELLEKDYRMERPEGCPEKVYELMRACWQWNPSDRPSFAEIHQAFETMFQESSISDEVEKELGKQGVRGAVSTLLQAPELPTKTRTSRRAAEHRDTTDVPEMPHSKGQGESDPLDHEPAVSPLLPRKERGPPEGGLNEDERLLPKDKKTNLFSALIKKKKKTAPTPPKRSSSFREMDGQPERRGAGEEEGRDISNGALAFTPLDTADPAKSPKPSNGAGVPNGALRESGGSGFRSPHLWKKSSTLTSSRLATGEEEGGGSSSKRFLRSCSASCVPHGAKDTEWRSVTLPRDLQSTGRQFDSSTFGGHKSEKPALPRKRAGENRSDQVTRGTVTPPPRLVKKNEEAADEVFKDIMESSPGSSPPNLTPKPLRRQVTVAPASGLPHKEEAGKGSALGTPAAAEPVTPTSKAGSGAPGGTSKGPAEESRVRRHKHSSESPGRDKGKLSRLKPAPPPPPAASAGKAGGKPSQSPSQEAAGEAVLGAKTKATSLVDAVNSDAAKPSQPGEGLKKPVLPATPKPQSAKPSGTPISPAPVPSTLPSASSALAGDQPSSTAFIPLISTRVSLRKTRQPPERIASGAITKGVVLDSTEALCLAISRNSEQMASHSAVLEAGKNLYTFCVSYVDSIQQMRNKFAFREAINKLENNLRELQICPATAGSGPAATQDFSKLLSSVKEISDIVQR
T10 sequence (Q13043 whole entry): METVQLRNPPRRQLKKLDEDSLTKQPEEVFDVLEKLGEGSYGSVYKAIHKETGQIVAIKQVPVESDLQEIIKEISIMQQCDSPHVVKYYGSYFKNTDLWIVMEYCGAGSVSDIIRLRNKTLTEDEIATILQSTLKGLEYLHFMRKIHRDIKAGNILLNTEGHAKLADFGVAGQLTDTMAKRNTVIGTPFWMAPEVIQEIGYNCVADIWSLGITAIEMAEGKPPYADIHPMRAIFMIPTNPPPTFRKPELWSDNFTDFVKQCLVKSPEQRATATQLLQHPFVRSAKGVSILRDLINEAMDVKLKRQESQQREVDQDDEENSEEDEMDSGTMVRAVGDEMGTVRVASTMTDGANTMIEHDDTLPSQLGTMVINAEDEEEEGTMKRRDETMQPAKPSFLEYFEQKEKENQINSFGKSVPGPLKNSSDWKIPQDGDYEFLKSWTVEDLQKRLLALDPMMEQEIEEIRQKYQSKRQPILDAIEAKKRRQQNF
T12 sequence (Q99683 whole entry): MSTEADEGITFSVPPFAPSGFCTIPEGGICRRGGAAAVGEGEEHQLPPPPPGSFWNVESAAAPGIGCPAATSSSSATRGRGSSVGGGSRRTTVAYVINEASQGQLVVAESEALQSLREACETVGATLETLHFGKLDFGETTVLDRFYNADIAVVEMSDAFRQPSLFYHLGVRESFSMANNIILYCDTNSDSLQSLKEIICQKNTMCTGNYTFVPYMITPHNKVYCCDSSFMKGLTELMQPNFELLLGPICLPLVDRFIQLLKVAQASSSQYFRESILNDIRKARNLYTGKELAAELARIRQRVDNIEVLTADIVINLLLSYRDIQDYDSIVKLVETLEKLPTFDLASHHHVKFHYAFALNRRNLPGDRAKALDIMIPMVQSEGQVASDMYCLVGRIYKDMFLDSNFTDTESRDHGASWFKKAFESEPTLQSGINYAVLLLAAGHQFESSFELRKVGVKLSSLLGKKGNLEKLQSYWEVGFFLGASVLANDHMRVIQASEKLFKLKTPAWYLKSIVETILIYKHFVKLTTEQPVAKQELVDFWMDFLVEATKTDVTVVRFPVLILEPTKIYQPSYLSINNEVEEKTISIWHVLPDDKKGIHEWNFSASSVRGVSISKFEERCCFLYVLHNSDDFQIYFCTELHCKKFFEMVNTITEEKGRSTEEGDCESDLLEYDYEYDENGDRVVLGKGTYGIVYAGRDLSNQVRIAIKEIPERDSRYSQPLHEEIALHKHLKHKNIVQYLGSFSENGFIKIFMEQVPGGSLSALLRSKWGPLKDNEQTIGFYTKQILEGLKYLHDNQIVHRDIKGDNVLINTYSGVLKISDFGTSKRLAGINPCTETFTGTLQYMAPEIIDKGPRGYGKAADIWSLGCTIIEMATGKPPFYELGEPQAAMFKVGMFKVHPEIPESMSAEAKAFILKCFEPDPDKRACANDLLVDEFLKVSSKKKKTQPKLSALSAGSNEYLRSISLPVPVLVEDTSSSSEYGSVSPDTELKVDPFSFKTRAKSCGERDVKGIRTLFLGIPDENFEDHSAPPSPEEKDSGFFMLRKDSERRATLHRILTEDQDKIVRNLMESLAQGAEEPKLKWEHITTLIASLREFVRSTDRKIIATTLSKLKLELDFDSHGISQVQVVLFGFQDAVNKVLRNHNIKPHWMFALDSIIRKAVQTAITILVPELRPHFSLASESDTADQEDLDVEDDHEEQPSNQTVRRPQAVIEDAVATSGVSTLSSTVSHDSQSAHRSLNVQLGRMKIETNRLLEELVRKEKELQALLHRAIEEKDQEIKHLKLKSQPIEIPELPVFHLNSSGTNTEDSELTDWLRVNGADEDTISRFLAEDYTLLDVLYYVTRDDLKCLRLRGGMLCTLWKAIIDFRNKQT
T6 sequence (Q06418 41-890): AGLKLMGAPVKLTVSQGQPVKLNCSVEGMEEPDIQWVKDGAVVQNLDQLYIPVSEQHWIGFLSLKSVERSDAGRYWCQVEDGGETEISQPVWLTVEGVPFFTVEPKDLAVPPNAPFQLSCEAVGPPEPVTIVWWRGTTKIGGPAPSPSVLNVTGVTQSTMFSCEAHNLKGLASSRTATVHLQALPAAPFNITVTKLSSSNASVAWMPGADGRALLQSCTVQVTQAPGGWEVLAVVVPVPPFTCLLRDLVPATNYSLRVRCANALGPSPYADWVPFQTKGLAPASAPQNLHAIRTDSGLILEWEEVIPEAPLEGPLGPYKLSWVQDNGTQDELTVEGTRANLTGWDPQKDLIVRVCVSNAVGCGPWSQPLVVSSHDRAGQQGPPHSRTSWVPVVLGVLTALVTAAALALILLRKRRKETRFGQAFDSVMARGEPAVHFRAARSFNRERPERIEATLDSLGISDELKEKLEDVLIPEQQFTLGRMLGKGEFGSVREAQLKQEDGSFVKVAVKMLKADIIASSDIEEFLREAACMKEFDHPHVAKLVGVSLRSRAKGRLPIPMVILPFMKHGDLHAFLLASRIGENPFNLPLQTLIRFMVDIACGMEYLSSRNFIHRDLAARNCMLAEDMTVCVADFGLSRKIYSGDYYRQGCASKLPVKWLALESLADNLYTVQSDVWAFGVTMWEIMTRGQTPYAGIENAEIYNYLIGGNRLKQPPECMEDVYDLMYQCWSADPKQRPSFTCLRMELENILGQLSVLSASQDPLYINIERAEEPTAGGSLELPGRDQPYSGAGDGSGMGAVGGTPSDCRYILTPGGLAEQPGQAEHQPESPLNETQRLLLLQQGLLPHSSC
T20 sequence (Q9NWZ3 whole entry): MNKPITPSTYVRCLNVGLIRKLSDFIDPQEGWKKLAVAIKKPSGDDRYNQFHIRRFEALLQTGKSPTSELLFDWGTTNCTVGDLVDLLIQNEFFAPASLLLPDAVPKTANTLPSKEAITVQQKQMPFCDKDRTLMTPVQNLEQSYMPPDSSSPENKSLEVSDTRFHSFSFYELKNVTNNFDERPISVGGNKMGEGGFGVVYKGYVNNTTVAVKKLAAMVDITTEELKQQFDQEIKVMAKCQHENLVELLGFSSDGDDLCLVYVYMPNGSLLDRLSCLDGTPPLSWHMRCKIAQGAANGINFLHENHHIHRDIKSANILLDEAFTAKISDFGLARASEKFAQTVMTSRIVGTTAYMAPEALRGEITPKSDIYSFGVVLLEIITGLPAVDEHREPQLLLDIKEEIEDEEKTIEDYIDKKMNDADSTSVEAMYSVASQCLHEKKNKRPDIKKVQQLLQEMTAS

SMILES	remaining activity at 10 µM (CDK1/cyclinB(h))	remaining activity at 10 µM (TAK1(h))	remaining activity at 10 µM (CDK7/cyclinH/MAT1(h))	Lyn inhibition (Lyn(h))	remaining activity at 10 µM (Lyn(h))	remaining activity at 10 µM (PRAK(h))	Neuroprotection on CGNs (cell viability after serum/potassium deprivation) [1]	remaining activity at 10 µM (Rse(h))	remaining activity at 10 µM (eEF-2K(h))	remaining activity at 10 µM (ALK(h))	remaining activity at 10 µM (c-RAF(h))	remaining activity at 10 µM (MST1(h))	remaining activity at 10 µM (PKCθ(h))	remaining activity at 10 µM (ASK1(h))	remaining activity at 10 µM [2]	remaining activity at 10 µM (p70S6K(h))	remaining activity at 10 µM (PI3 Kinase (p120γ)(h))	Abl inhibition (Abl(h))	remaining activity at 10 µM (Abl(h))	remaining activity at 10 µM (DRAK1(h))	also measured
Br.Cc1sc(NCc2ccccc2)nc1-c1c[nH]c2ncc(Br)cc12 [Compound 41, N-Benzyl-4-(5-bromo-1H-pyrrolo[2,3-b]pyridin-3-yl)-5-methylthiazol-2-amine Hydrobromide]	27%	49%	55%	completely inhibited	1%	64%	mitigate the physiological senescence and mortality rate	34%	121%	38%	52%	16%	98%	72%	66%	50%	80%	completely inhibited	8%	9%	inhibition at 10 µM (DRAK1(h)): > 90%; remaining activity at 10 µM (PKCα(h)): 66%; remaining activity at 10 µM (ROCK-I(h)): 93%; remaining activity at 10 µM (IRAK4(h)): 52%; remaining activity at 10 µM (CaMKI(h)): 89%; remaining activity at 10 µM (MEK1(h)): 61%
Br.Cc1sc(NCc2ccnc(Cl)c2)nc1-c1c[nH]c2ncccc12 [Compound 43, N-((2-Chloropyridin-4-yl)methyl)-5-methyl-4-(1H-pyrrolo[2,3-b]pyridin-3-yl)thiazol-2-amine Hydrobromide]	20%	30%	62%	completely inhibited	1%	97%	mitigate the physiological senescence and mortality rate	98%	108%	61%	34%	14%	23%	97%	97%	14%	94%	completely inhibited	6%	14%	remaining activity at 10 µM (PKCα(h)): 28%; remaining activity at 10 µM (ROCK-I(h)): 76%; remaining activity at 10 µM (IRAK4(h)): 31%; remaining activity at 10 µM (CaMKI(h)): 80%; remaining activity at 10 µM (MEK1(h)): 35%
